Where a SMILES comes first, the peptide text is derived from it. The star is where a group is joined. Cbz = O=C(OCc1ccccc1)*; CH2F = FC*
Tests used:
[1] = biological target: T1, Recombinant unphosphorylated c-Met comprising residues 1038-1346 (Homo sapiens, UniProt P08581); assay: c-Met p33 kinase assay (33P-ATP, IGF-1 Rtide substrate); type: biochemical; details: 15 minutes preincubation, 100 μM ATP, 30 minutes reaction
T1 construct: The DNA fragment encoding the kinase domain (1038-1346) was inserted into Novagen vector pet28a; six-histidine tag (N); made in house; host or cells: E. coli BL21(DE3)RIL
T1 sequence (P08581 1038-1346): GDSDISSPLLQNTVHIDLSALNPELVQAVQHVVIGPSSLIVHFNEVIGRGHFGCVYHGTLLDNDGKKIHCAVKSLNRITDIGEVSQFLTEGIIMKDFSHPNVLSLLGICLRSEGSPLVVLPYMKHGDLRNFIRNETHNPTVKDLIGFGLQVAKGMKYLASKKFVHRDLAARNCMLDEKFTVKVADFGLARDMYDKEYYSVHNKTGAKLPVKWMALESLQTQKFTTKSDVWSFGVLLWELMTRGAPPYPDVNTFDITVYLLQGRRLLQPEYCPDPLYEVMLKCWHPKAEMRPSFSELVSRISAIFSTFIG
Text: cDNA of full-length c-Met purchased from Origen Technologies was used as template for PCR amplification. The DNA fragment encoding the kinase domain (1038-1346) was inserted into Novagen vector pet28a between Nco1 and Sal1 sites. The primers were designed to contain a six-histidine tag to the N-terminus. In order to express dephosphorylated c-Met kinase protein, a tyrosine phosphatase PTP1B (1-283) was sequentially ligated into the made construct between SalI and Nod sites. A second ribosome binding site was incorporated in the PTP1B primer after the SalI site. The N-terminal His-tagged proteins were expressed in Circlegrow broth (Q-Biogen). The transformed E. Coli cell line BL21(DE3)RIL (Stratagene) was cultured to OD=0.8 at 37° C. and induced with 0.3 mM of IPTG for overnight at 12° C. The co-expressed protein was purified by metal-chelation chromatography followed by anion and cation columns. In brief, 4 liters of cells were lysed by sonication in 140 ml buffer containing 20 mM MOPS pH=6.5, 200 mM NaCl, 7.5% glycerol, 0.1% Igepal, supplied with 1 mM PMSF. The supernatant was obtained by centrifugation at 50,000 g for 30 minutes and followed by incubation with 8 mL of Ni-NTA His Bind resin (Novagen) at 4° C. for one hour. A second step 50 mL wash buffer (with 100 mM NaCl and 5 mM imidazole) was applied after initial wash with the lysis buffer. Protein was eluted by 200 mM imidazole pH=8.5, 100 mM NaCl and 7.5% glycerol and directly cleared by passing 10 mL QFF column. The salt concentration and the pH value of the protein flow through were adjusted to 50 mM and 7.5 by dilution, and then loaded to 1 mL SP FF column. The protein was further gel-filtered in an equilibrium buffer of 20 mM TrisHCl pH=8.5, 150 mM NaCl, 7.5% glycerol and 2 mM DTT. The monomeric unphosphorylated c-Met protein was concentrated to 30 mg/mL for storage at −80° C.
Recombinant unphosphorylated c-Met comprising residues 1038-1346 (12.5 ng) was pre-incubated with increasing concentrations of compounds for 15 minutes at room temperature. […]

[2] = system: HT29 cells; assay: MTS assay; type: cell-based; details: Homo sapiens, HT-29, compound for 24 hours, then drug-free medium for additional 48 hours, MTS readout
Protocol: HT29 cells were seeded in 96-well plates at 1,800 cells/well overnight in medium with 10% FBS. The next day, cells were treated with increasing concentrations of compounds for 24 hours at 37° C. After the treatments, the compound-containing medium was removed, cells were washed twice with PBS, and incubated in drug-free medium containing 10% FBS for an additional 48 hours. After addition of MTS and PMS for 4 hours at concentrations of 2 mg/mL and 0.92 mg/mL, respectively, the results were quantitated by spectrophotometry at λ=490 nm and IC50 for each compound was determined

[3] = system: HT29 cells; assay: Cell death by Annexin V-Fluos staining after siRNA transfection, high content imaging; type: cell-based; details: increasing concentrations of caspase inhibitor for 1 additional day after transfection
Protocol: Exponentially growing HT29 cells were plated in black 96-well plates at 5,000 cells/well overnight in medium with 10% FBS. The next day, cells were transiently transfected for 2 days using DharmaFECT 4 reagent with a pool of four met-specific 21-nucleotide RNA oligonucleotides forming a 19-bp duplex core with 2-nucleotide 3′ overhang in combination (Dharmacon, Inc., Lafayette, Colo.). Transfection of gapdh siRNA (Dharmacon, Inc.) and of a non-targeting siRNA under the same conditions was done in parallel as controls (Dharmacon, Inc.). Cells were then incubated in the absence or the presence of increasing concentrations of ZvAD-FMK, an irreversible caspase inhibitor for 1 additional day. Cells were incubated for at least 10 minutes in a labeling solution (10 mM HEPES, 140 mM NaCl and 6 mM CaCl2) containing 2 μg/ml Hoechst 33342 (blue channel; Molecular Probes/Invitrogen Corp., Natick, Mass.), 500 times diluted Annexin V-Fluos (green channel; Roche Applied Science, Indianapolis, Ind.) and 1 μg/ml propidium iodide (red channel; Roche Applied Science). High content image acquisition and analysis were carried out using a Beckman Coulter IC100 Cytometer. The program was set to take four images per well. […] Images were processed and numbers of positive cells for each channel and each condition were determined using Cytoshop 2.1 software (Beckman Coulter, Inc.). […]

Compound | IC50 [1] | IC50 [2] | melting point | levels of cell death in met siRNA transfected cells [3]
O=C1NC(=O)[C@H](c2c[nH]c3ccccc23)[C@@H]1C(=O)c1cn2c3c(cccc13)CCC2 (racemic) [Example 9, (±)-cis-3-(5,6-dihydro-4H-pyrrolo[3,2,1-ij]quinoline-1-carbonyl)-4-(1H-indol-3-yl)-pyrrolidine-2,5-dione] | ≥ 10000 nM | 1000 to 10000 nM | 283 to 285 °C | –
COC(=O)C[C@H](NC(=O)[C@H](C)NC(=O)[C@@H](NC(=O)OCc1ccccc1)C(C)C)C(=O)CF [ZvAD-FMK] (Cbz-Val-Ala-Asp(OMe)-CH2F) | – | – | – | decreased the levels of cell death
O=C1NC(=O)[C@@H](c2cn3c4c(cccc24)CC3)[C@@H]1c1c[nH]c2ccccc12 (racemic) [Example 33, (±)-trans-3-(4,5-dihydro-pyrrolo[3,2,1-hi]indol-1-yl)-4-(1H-indol-3-yl)-pyrrolidine-2,5-dione] | ≥ 10000 nM | ≤ 1000 nM | 144 to 148 °C | –
O=C1NC(=O)[C@@H](c2c[nH]c3ccccc23)[C@@H]1Cc1cn2c3c(cccc13)CCC2 (racemic) [Example 6, (±)-trans-3-(5,6-dihydro-4H-pyrrolo[3,2,1-ij]quinolin-1-ylmethyl)-4-(1H-indol-3-yl)-pyrrolidine-2,5-dione] | – | 1000 to 10000 nM | 215 to 218 °C | –

The next lines start with results.

IC50 [1] | IC50 [2] | melting point | Compound | levels of cell death in met siRNA transfected cells [3]
– | ≤ 1000 nM | 195 to 200 °C | O=C1NC(=O)[C@@H](c2c[nH]c3ccc(Br)cc23)[C@@H]1c1cc2c3c(ccn3CCC2)c1 (racemic) [Example 19, (±)-trans-3-(5-bromo-1H-indol-3-yl)-4-(5,6-dihydro-4H-pyrrolo[3,2,1-ij]quinolin-8-yl)-pyrrolidine-2,5-dione] | –
– | ≤ 1000 nM | – | COc1cccc([C@@H]2C(=O)NC(=O)[C@H]2c2cc3c4c(ccn4CCC3)c2)c1 (racemic) [Example 25, (±)-trans-3-(5,6-dihydro-4H-pyrrolo[3,2,1-ij]quinolin-8-yl)-4-(3-methoxy-phenyl)-pyrrolidine-2,5-dione] | –
– | ≤ 1000 nM | 209 to 212 °C | O=C1NC(=O)[C@@H](c2ccccc2Cl)[C@@H]1c1cc2c3c(ccn3CCC2)c1 (racemic) [Example 22, (±)-trans-3-(2-chloro-phenyl)-4-(5,6-dihydro-4H-pyrrolo[3,2,1-ij]quinolin-8-yl)-pyrrolidine-2,5-dione] | –
≥ 10000 nM | ≤ 1000 nM | 141 to 145 °C | O=C1NC(=O)[C@@H](c2cc3c4c(ccn4CCC3)c2)[C@H]1c1c[nH]c2ccccc12 (racemic) [Example 16] | –
